Assay results published in ChEMBL document CHEMBL1949629, “Discovery of a second generation agonist of the orphan G-protein coupled receptor GPR119 with an improved profile” (Bioorg Med Chem Lett, 2012).
Values after ≈ are worked out from the molar mass of the structure shown.

Experiments:
[1] = Solubility in 40% HPbetaCD after 24 hrs; assay type: physicochemical
[2] = Solubility in 20% HPbetaCD after 24 hrs; assay type: physicochemical
[3] = Clearance in iv dosed Swiss albino mouse; assay type: ADME, organism-based; conditions: in vivo
[4] = Clearance in iv dosed Sprague-Dawley rat; assay type: ADME, organism-based; conditions: in vivo
[5] = Clearance in iv dosed Zucker fa/fa rat; assay type: ADME, organism-based; conditions: in vivo
[6] = Clearance in iv dosed Beagle dog; assay type: ADME, organism-based, Canis lupus familiaris; conditions: in vivo
[7] = Clearance in iv dosed Cynomolgus monkey; assay type: ADME, organism-based, Macaca fascicularis; conditions: in vivo
Cytochrome P450 2C9 = Cytochrome P450 2C9 (Homo sapiens, UniProt P11712); assay: Inhibition of CYP2C9; assay type: ADME
Sequence of Cytochrome P450 2C9 (P11712 whole entry): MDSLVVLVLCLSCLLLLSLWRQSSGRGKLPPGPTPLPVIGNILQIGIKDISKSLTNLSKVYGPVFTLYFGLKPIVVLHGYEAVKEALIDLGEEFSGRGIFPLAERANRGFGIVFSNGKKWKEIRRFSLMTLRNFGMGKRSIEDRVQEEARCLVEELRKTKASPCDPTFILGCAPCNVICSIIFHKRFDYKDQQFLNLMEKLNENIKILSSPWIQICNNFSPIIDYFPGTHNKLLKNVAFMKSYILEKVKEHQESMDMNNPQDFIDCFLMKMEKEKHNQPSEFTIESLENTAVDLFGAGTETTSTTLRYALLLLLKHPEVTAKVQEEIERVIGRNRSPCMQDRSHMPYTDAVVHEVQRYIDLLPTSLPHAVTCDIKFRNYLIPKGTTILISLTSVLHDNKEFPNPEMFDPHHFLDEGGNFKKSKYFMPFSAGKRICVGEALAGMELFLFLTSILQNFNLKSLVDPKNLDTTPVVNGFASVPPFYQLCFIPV

[8] = Solubility in water; assay type: physicochemical; conditions: buffer
[9] = Solubility in water at low pH; assay type: physicochemical; conditions: buffer

Compound	solubility at 24 h [1]	solubility at 24 h [2]	further results
Cc1ncccc1Oc1ncnc(OC2CCN(C(=O)OC(C)C)CC2)c1C	15900 µg/mL (≈ 41.1 mM)	15900 µg/mL (≈ 41.1 mM)	
CC(C)OC(=O)N1CCC(Oc2ncnc3c2cnn3-c2ccc(S(C)(=O)=O)cc2F)CC1			clearance [3]: 3.83 mL/min/kg; clearance [4]: 20 mL/min/kg; clearance [5]: 7.33 mL/min/kg; clearance [6]: 2 mL/min/kg; clearance [7]: 1.83 mL/min/kg
Cc1ccc(Oc2ncnc(OC3CCN(C(=O)OC(C)C)CC3)c2C)c(C)n1		13200 µg/mL (≈ 33.1 mM)	
Cc1c(Oc2ccc(S(C)(=O)=O)cc2F)ncnc1OC1CCN(C(=O)OC(C)C)CC1	1100 µg/mL (≈ 2.35 mM)	1100 µg/mL (≈ 2.35 mM)	IC50 (Cytochrome P450 2C9): 5.3 µM
Cc1c(Nc2ccc(S(C)(=O)=O)cc2F)ncnc1OC1CCN(C(=O)OC(C)C)CC1	16700 µg/mL (≈ 35.8 mM)		
Cc1ncccc1Nc1ncnc(OC2CCN(C(=O)OC(C)C)CC2)c1C	7700 µg/mL (≈ 20 mM)		
Cc1ccncc1Oc1ncnc(OC2CCN(C(=O)OC(C)C)CC2)c1C	8500 µg/mL (≈ 22 mM)		
Cc1c(Oc2cncc(F)c2)ncnc1OC1CCN(C(=O)OC(C)C)CC1		5100 µg/mL (≈ 13.1 mM)	
Cc1nc(S(C)(=O)=O)ccc1Oc1ncnc(OC2CCN(C(=O)OC(C)C)CC2)c1C		6700 µg/mL (≈ 14.4 mM)	
Cc1nc(S(C)(=O)=O)ccc1Nc1ncnc(OC2CCN(C(=O)OC(C)C)CC2)c1C		24000 µg/mL (≈ 51.8 mM)	IC50 (Cytochrome P450 2C9): 2.5 µM; solubility [8]: Insoluble; solubility [9]: soluble
